Measured values as given in PubChem BioAssay (NCI).
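These data come from cells grown in 96-well plates and exposed to compound for 48 hours at five concentrations. GI50: concentration for 50% inhibition of growth. TGI: concentration producing complete growth inhibition.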

Tested on: HT29 colon
Assay: DTP human tumour cell line panel, 48 h

What does the source list for `CC1(C)OC2C(CO[Si](C)(C)C(C)(C)C)OC(n3c(I)c(C#C[Si](C)(C)C)c(=O)[nH]c3=O)C2O1` (stereo not drawn)?
GI50: 5.01 µM; TGI: 23.7 µM

`CN(C)CC[C@H](CSc1ccccc1)Nc1ccc(S(=O)(=O)NC(=O)c2ccc(N3CCN(Cc4ccccc4-c4ccc(Cl)cc4)CC3)cc2)cc1[N+](=O)[O-]` was tested. Which GI50 did it give?
The GI50 was 2.17 µM.

What about the TGI of the same compound?
Its TGI is 5.02 µM.

Which results are given for `COc1ccc(-c2ccc(=O)oc2C#Cc2cc(OC)c(OC)c(OC)c2)cc1O`?
GI50: 1.25 µM; TGI: 12.3 µM

Which GI50 does the source give for `O=C(/C=C/c1ccc[nH]1)c1ccc(-n2ccc(C(F)(F)F)n2)cc1` here?
The GI50 was > 100 µM.

What about the TGI of the same compound?
The TGI was > 100 µM.

What does the source list for `O=C(c1ccco1)c1c(C(F)(F)F)nc2ccc(Cl)cc2[n+]1[O-]`?
GI50: > 100 µM; TGI: > 100 µM

Which GI50 does the source give for `COc1ccc(-c2nnc3n(C)c(=O)c4ccccc4n23)cc1N` here?
The GI50 was 0.0432 µM.

And the TGI?
Its TGI is > 100 µM.

With `COc1ccc2nc3ccccc3c(NCc3ccc(F)cc3)c2c1` as the compound, how does the GI50 read?
Its GI50 is 1.48 µM.

What about the TGI of the same compound?
The TGI was 5.19 µM.

What does the source list for `CN(C)C1CCN(C(=O)c2ccc(NC(=O)Nc3ccc(-c4nc(N5CCOCC5)c5cccn5n4)cc3)cc2)CC1`?
GI50: 0.0558 µM; TGI: 3.78 µM

`COc1cc(N=Nc2ccc(O)c3ncccc23)c2ncccc2c1` was tested. Which GI50 did it give?
The GI50 was 6.65 µM.

What about the TGI of the same compound?
Its TGI is > 100 µM.

For `CCn1c(O)c(/C=N/NC(=O)C(C)c2ccc(CC(C)C)cc2)sc1=S` (stereo not drawn), which GI50 is on record?
The GI50 was 2.42 µM.

What about the TGI of the same compound?
Its TGI is > 37.8 µM.

What does the source list for `C[C@@H]1C[C@@H]([C@@H](CC2CC(=O)NC(=O)C2)OC(=O)CC(=O)c2ccccc2)C(=O)[C@@H](C)C1`?
GI50: 0.634 µM; TGI: > 100 µM

How did the GI50 turn out when `Cc1nc(Nc2cccnc2)sc1C(=O)/C=C/c1ccc(F)cc1` was run?
The GI50 was 2.76 µM.

What about the TGI of the same compound?
The TGI was 10.1 µM.

What does the source list for `N=c1c2c(-c3ccccc3)c(-c3ccccc3)n(Cc3ccccc3)c2ncn1C1CCC(O)CC1` (stereo not drawn)?
GI50: 0.0772 µM; TGI: 2.49 µM

With `O=c1c(F)cn(Cc2ccc(C34CC5CC(CC(C5)C3)C4)c(O)c2)c(=O)n1Cc1ccc(C23CC4CC(CC(C4)C2)C3)c(O)c1` as the compound, how does the GI50 read?
Its GI50 is 13.9 µM.

And the TGI?
Its TGI is 29.9 µM.

Which GI50 does the source give for `CCOC(=O)Nc1cc2c(c(N)n1)N=C(c1ccccc1)CO2` here?
The GI50 was 0.047 µM.

What about the TGI of the same compound?
Its TGI is 10.9 µM.

With `CC1CC2CCCC(O)=C2C(=O)O1` (stereo not drawn) as the compound, how does the TGI read?
The TGI was > 100 µM.

How did the GI50 turn out when `O=c1oc2ccc(-c3ccc(F)cc3F)cc2c(=O)n1-c1cccc(C(F)(F)F)c1` was run?
The GI50 was 3.24 µM.

And the TGI?
The TGI was 11.7 µM.

With `COC(=O)c1ccc2c(c1)C(=O)c1c-2n(CCCN=[N+]=[N-])c(=O)c2cc(OC)c(OC)cc12` as the compound, how does the GI50 read?
Its GI50 is > 100 µM.

What about the TGI of the same compound?
Its TGI is > 100 µM.

Tested on: MDA-MB-231 breast
Assay: DTP human tumour cell line panel, 48 h

For `CC1(C)OC2C(CO[Si](C)(C)C(C)(C)C)OC(n3c(I)c(C#C[Si](C)(C)C)c(=O)[nH]c3=O)C2O1` (stereo not drawn), which GI50 is on record?
Its GI50 is 4.22 µM.

And the TGI?
The TGI was 17 µM.

How did the GI50 turn out when `CN(C)CC[C@H](CSc1ccccc1)Nc1ccc(S(=O)(=O)NC(=O)c2ccc(N3CCN(Cc4ccccc4-c4ccc(Cl)cc4)CC3)cc2)cc1[N+](=O)[O-]` was run?
The GI50 was 1.55 µM.

What about the TGI of the same compound?
Its TGI is 3.5 µM.

With `COc1ccc(-c2ccc(=O)oc2C#Cc2cc(OC)c(OC)c(OC)c2)cc1O` as the compound, how does the GI50 read?
Its GI50 is 0.905 µM.

And the TGI?
The TGI was 10.1 µM.

What does the source list for `O=C(/C=C/c1ccc[nH]1)c1ccc(-n2ccc(C(F)(F)F)n2)cc1`?
GI50: > 100 µM; TGI: > 100 µM

Which results are given for `O=C(c1ccco1)c1c(C(F)(F)F)nc2ccc(Cl)cc2[n+]1[O-]`?
GI50: > 100 µM; TGI: > 100 µM

`COc1ccc(-c2nnc3n(C)c(=O)c4ccccc4n23)cc1N` was tested. Which GI50 did it give?
Its GI50 is 3.92 µM.

And the TGI?
Its TGI is > 100 µM.

How did the GI50 turn out when `COc1ccc2nc3ccccc3c(NCc3ccc(F)cc3)c2c1` was run?
Its GI50 is 1.85 µM.

What about the TGI of the same compound?
Its TGI is 7.26 µM.

How did the GI50 turn out when `CN(C)C1CCN(C(=O)c2ccc(NC(=O)Nc3ccc(-c4nc(N5CCOCC5)c5cccn5n4)cc3)cc2)CC1` was run?
Its GI50 is 0.0491 µM.

And the TGI?
Its TGI is 11.1 µM.

How did the GI50 turn out when `COc1cc(N=Nc2ccc(O)c3ncccc23)c2ncccc2c1` was run?
Its GI50 is 3.16 µM.

What about the TGI of the same compound?
The TGI was > 100 µM.

Which results are given for `CCn1c(O)c(/C=N/NC(=O)C(C)c2ccc(CC(C)C)cc2)sc1=S` (stereo not drawn)?
GI50: 0.515 µM; TGI: 7.59 µM

For `C[C@@H]1C[C@@H]([C@@H](CC2CC(=O)NC(=O)C2)OC(=O)CC(=O)c2ccccc2)C(=O)[C@@H](C)C1`, which GI50 is on record?
The GI50 was 2.94 µM.

And the TGI?
Its TGI is 90.5 µM.

For `Cc1nc(Nc2cccnc2)sc1C(=O)/C=C/c1ccc(F)cc1`, which GI50 is on record?
The GI50 was 4.03 µM.

And the TGI?
Its TGI is > 100 µM.

For `N=c1c2c(-c3ccccc3)c(-c3ccccc3)n(Cc3ccccc3)c2ncn1C1CCC(O)CC1` (stereo not drawn), which GI50 is on record?
The GI50 was 1.29 µM.

What about the TGI of the same compound?
The TGI was 4.65 µM.

How did the GI50 turn out when `O=c1c(F)cn(Cc2ccc(C34CC5CC(CC(C5)C3)C4)c(O)c2)c(=O)n1Cc1ccc(C23CC4CC(CC(C4)C2)C3)c(O)c1` was run?
The GI50 was 12.3 µM.

What about the TGI of the same compound?
The TGI was 24.8 µM.

With `CCOC(=O)Nc1cc2c(c(N)n1)N=C(c1ccccc1)CO2` as the compound, how does the GI50 read?
The GI50 was 0.691 µM.

And the TGI?
The TGI was 6.43 µM.

How did the TGI turn out when `CC1CC2CCCC(O)=C2C(=O)O1` (stereo not drawn) was run?
The TGI was > 100 µM.

For `O=c1oc2ccc(-c3ccc(F)cc3F)cc2c(=O)n1-c1cccc(C(F)(F)F)c1`, which GI50 is on record?
The GI50 was 2.08 µM.

What about the TGI of the same compound?
The TGI was 7.37 µM.

Which GI50 does the source give for `COC(=O)c1ccc2c(c1)C(=O)c1c-2n(CCCN=[N+]=[N-])c(=O)c2cc(OC)c(OC)cc12` here?
The GI50 was > 100 µM.

And the TGI?
The TGI was > 100 µM.

Tested on: SF-268 CNS
Assay: DTP human tumour cell line panel, 48 h

With `CC1(C)OC2C(CO[Si](C)(C)C(C)(C)C)OC(n3c(I)c(C#C[Si](C)(C)C)c(=O)[nH]c3=O)C2O1` (stereo not drawn) as the compound, how does the GI50 read?
Its GI50 is 11.4 µM.

And the TGI?
The TGI was 28.2 µM.

`CN(C)CC[C@H](CSc1ccccc1)Nc1ccc(S(=O)(=O)NC(=O)c2ccc(N3CCN(Cc4ccccc4-c4ccc(Cl)cc4)CC3)cc2)cc1[N+](=O)[O-]` was tested. Which GI50 did it give?
Its GI50 is 5.84 µM.

And the TGI?
The TGI was > 100 µM.

Which results are given for `COc1ccc(-c2ccc(=O)oc2C#Cc2cc(OC)c(OC)c(OC)c2)cc1O`?
GI50: 0.558 µM; TGI: > 100 µM

With `O=C(/C=C/c1ccc[nH]1)c1ccc(-n2ccc(C(F)(F)F)n2)cc1` as the compound, how does the GI50 read?
Its GI50 is 3.8 µM.

And the TGI?
The TGI was > 100 µM.

Which GI50 does the source give for `O=C(c1ccco1)c1c(C(F)(F)F)nc2ccc(Cl)cc2[n+]1[O-]` here?
The GI50 was > 100 µM.

And the TGI?
Its TGI is > 100 µM.

What does the source list for `COc1ccc(-c2nnc3n(C)c(=O)c4ccccc4n23)cc1N`?
GI50: 7.17 µM; TGI: > 100 µM

Which GI50 does the source give for `COc1ccc2nc3ccccc3c(NCc3ccc(F)cc3)c2c1` here?
The GI50 was 2.2 µM.

And the TGI?
The TGI was 8.71 µM.

How did the GI50 turn out when `CN(C)C1CCN(C(=O)c2ccc(NC(=O)Nc3ccc(-c4nc(N5CCOCC5)c5cccn5n4)cc3)cc2)CC1` was run?
The GI50 was 0.0453 µM.

What about the TGI of the same compound?
The TGI was 13.9 µM.

Which results are given for `COc1cc(N=Nc2ccc(O)c3ncccc23)c2ncccc2c1`?
GI50: 2.81 µM; TGI: > 100 µM
